From US8962664B2, “Selective glycosidase inhibitors and uses thereof” (Simon Fraser University, priority 2006, dated 2015)

Assays:
O-GlcNAcase = O-GlcNAcase (Homo sapiens (Human), UniProt O60502); assay: Assay for determination of KI values for inhibition of O-GlcNAcase activity; type: biochemical; settings: pNP-GlcNAc 0.5 mM, PBS buffer pH 7.4, 37° C., Dixon plots
Description: Experimental Procedure for Kinetic Analyses: Enzymatic reactions were carried out in PBS buffer (pH 7.4) using pNP-GlcNAc as a substrate (0.5 mM) and monitored continuously at 37° C. at 400 nm using a Cary 3E UV-VIS spectrophotometer equipped with a Peltier temperature controller. Reactions were pre-heated in a 500 μL quartz cuvette for approximately 5 minutes followed by addition of 10 μL enzyme via syringe (final enzyme concentration 0.002 mg/mL). Reaction velocities were determined by linear regression of the linear region of the reaction progress curve between the first and third minutes. An inhibitor concentration range of ⅕ to 5 times K1 was used in each case.
For example, the K1 values for inhibition of O-GlcNAcase shown in Table 4 were obtained for compounds 2, 4, and 6. All K1 values were determined using linear regression of a Dixon plots.

[1] = Stability on storage neat; type: physicochemical; settings: stored neat at 0° C. (7 d)
Description: The azide obtained as described above (200 mg, 0.81 mmol) was dissolved in 3:1 THF:H2O (5 mL) and triphenylphosphine (310 mg, 1.2 mmol) was added. The solution was then stirred overnight at room temperature. Concentration of the mixture followed by flash chromatography of the resultant residue on silica gel (MeOH:EtOAc 2:3) gave 130 mg (75% yield) of (3aR,5R,6S,7R,7aR)-5-(aminomethyl)-2-propyl-5,6,7,7a-tetrahydro-3aH-pyrano[3,2-d]thiazole-6,7-diol (51) as a colourless oil. […] (7 d). ^1H NMR (500 MHz, methanol-d4): δ 0.97 (t, 3H, J=7.4 Hz), 1.63-1.67 (m, 2H), 2.43-2.49 (m, 2H), 3.39 (ddd, 1H, J=2.5, 4.1, 9.0 Hz), 3.51 (dd, 1H, J=4.1, 9.5 Hz), 3.64 (dd, 1H, J=2.5, 12.5 Hz), 3.75 (dd, 1H, J=6.1, 12.5 Hz), 4.04 (dd, 1H, J=4.4, 4.5 Hz), 4.28 (m, 1H), 6.35 (d, 1H, J=7.0 Hz).

Sequence of O-GlcNAcase (O60502 whole entry): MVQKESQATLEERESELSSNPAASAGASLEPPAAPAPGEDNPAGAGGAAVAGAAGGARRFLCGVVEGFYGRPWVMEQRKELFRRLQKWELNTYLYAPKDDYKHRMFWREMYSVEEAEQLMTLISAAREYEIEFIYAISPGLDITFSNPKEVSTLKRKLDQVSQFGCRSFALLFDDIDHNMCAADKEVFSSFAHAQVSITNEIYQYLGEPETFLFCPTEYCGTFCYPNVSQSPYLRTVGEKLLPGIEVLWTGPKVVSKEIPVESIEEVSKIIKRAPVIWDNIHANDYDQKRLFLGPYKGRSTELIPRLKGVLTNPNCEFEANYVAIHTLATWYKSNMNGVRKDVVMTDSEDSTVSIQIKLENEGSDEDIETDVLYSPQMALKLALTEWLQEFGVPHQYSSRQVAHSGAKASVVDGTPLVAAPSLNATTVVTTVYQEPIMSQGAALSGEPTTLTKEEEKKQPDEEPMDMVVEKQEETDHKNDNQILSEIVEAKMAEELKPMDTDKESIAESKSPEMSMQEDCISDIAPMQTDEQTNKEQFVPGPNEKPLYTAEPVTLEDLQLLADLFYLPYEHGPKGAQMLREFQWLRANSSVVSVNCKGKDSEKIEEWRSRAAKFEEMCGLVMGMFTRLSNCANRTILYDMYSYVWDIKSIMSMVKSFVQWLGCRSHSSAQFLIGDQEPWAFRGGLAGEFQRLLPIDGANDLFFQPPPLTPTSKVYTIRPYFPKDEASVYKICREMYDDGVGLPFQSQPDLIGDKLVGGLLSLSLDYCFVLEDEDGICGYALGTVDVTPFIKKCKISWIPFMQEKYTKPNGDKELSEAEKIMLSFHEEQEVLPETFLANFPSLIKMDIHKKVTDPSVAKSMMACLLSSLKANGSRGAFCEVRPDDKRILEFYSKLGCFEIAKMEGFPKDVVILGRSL

| Ki (O-GlcNAcase) | stability on storage [1] | Structure (SMILES) |
| --- | --- | --- |
| 5.6 µM | – | OC[C@H]1O[C@@H]2SC(C(F)(F)F)=N[C@@H]2[C@@H](O)[C@@H]1O [Compound 6, (3aR,5R,6S,7R,7aR)-5-(hydroxymethyl)-2-(trifluoromethyl)-5,6,7,7a-tetrahydro-3aH-pyrano[3,2-d]thiazole-6,7-diol] |
| – | decompose slowly with time | CCCC1=N[C@@H]2[C@@H](O)[C@H](O)[C@@H](CN)O[C@@H]2S1 [Compound 51, (3aR,5R,6S,7R,7aR)-5-(aminomethyl)-2-propyl-5,6,7,7a-tetrahydro-3aH-pyrano[3,2-d]thiazole-6,7-diol] |
| 7.7 µM | – | OC[C@H]1O[C@@H]2SC(C(F)F)=N[C@@H]2[C@@H](O)[C@@H]1O [Compound 4, (3aR,5R,6S,7R,7aR)-2-(difluoromethyl)-5-(hydroxymethyl)-5,6,7,7a-tetrahydro-3aH-pyrano[3,2-d]thiazole-6,7-diol] |
| 10 µM | – | OC[C@H]1O[C@@H]2SC(CF)=N[C@@H]2[C@@H](O)[C@@H]1O [Compound 2, (3aR,5R,6S,7R,7aR)-2-(fluoromethyl)-5-(hydroxymethyl)-5,6,7,7a-tetrahydro-3aH-pyrano[3,2-d]thiazole-6,7-diol] |
